In BigSolDB 2.1:

CC(=O)N[C@@H](Cc1ccc(O)cc1)C(=O)O
solubility (mole fraction)
Conditions | 283.15 K | 288.15 K | 293.15 K | 298.15 K | 303.15 K | 308.15 K | 313.15 K | 318.15 K | 323.15 K
in acetone | 0.106 | 0.116 | 0.132 | 0.136 | 0.145 | 0.152 | 0.166 | 0.181 | 0.197
in acetonitrile | 0.00301 | 0.00353 | 0.00436 | 0.00526 | 0.0064 | 0.00795 | 0.00988 | 0.0129 | 0.017
in dimethyl carbonate | 0.00114 | 0.00122 | 0.00127 | 0.0015 | 0.00224 | 0.00267 | 0.00307 | 0.00373 | 0.00404
in ethyl acetate | 0.00383 | 0.00412 | 0.00477 | 0.00507 | 0.00577 | 0.00655 | 0.0073 | 0.00849 | 0.0102
in isobutanol | 0.0349 | 0.0378 | 0.0468 | 0.0522 | 0.06 | 0.0683 | 0.0777 | 0.0853 | 0.0973
in isopentanol | 0.0363 | 0.0394 | 0.0487 | 0.05 | 0.0568 | 0.0634 | 0.0635 | 0.0749 | 0.0807
in isopropanol | 0.0772 | 0.0942 | 0.105 | 0.111 | 0.122 | 0.134 | 0.148 | 0.159 | 0.171
in methyl acetate | 0.00475 | 0.00537 | 0.00621 | 0.00723 | 0.0085 | 0.00995 | 0.0115 | 0.0139 | 0.0162
in n-butanol | 0.0529 | 0.058 | 0.0653 | 0.0715 | 0.0789 | 0.0892 | 0.0911 | 0.0979 | 0.108
in n-butyl acetate | 0.00136 | 0.00179 | 0.00214 | 0.00252 | 0.003 | 0.00351 | 0.00388 | 0.00413 | 0.00435
in n-propyl acetate | 0.00163 | 0.00185 | 0.00232 | 0.00261 | 0.00289 | 0.00366 | 0.0041 | 0.00509 | 0.00537
in sec-butanol | 0.08 | 0.0885 | 0.0967 | 0.103 | 0.113 | 0.125 | 0.137 | 0.146 | 0.159
in water | 0.00875 | 0.00935 | 0.0115 | 0.0154 | 0.021 | 0.0292 | 0.0459 | 0.0726 | 0.106
